Molecular target: T1, Amine oxidase [flavin-containing] A (Homo sapiens, UniProt P21397)
T1 sequence (P21397 whole entry): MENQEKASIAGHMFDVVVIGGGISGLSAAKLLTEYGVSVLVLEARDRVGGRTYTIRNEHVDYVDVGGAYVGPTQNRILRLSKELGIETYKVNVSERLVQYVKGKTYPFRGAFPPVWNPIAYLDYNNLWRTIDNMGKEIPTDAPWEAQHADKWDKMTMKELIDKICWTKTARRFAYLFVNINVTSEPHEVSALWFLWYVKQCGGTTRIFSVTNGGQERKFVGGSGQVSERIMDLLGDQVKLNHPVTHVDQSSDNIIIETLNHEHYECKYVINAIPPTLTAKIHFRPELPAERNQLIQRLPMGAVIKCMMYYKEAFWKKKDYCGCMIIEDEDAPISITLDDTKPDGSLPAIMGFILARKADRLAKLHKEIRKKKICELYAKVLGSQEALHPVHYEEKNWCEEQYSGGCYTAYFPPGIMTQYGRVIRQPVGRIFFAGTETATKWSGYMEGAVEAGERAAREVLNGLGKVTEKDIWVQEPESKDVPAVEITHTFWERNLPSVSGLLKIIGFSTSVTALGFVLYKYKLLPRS
Assay: […]

| Ki [nM] | SMILES |
| --- | --- |
| 9.51 | Cn1cccc1C(=O)[C@H](c1ccccc1)N1CCCC1 [1-(1-Methyl-1H-pyrrol-2-yl)-2-phenyl-2-pyrrolidin-1-yl-ethanone (+)-S] |
| 3.5 | Cn1cccc1C(=O)[C@@H](c1ccccc1)N1CCCC1 [1-(1-Methyl-1H-pyrrol-2-yl)-2-phenyl-2-pyrrolidin-1-yl-ethanone (-)-R] |

— BindingDB's records for doi:10.1016/j.bmcl.2011.02.072 (Bharati Vidyapeeth Deemed University, 2011)
